Test results as given in patent US4342780A, “Method of depleting endogenous monoamines” (Merrell-Toraude et Cie, priority 1981, dated 1982).

Legend:
[1] = test system: AADC; assay: Ex vivo AADC activity in organs of mice after repeated i.p. doses (Table II); set-up: species or system mice (Swiss Albino); settings: three days, 12 h after 6th dose, vs control
Experimental: (§1) The test animals (e.g. mice or rats) are given the test compound in a suitable vehicle, either orally or by injection, each day over the period of time desired. The animals are kept on a constant time cycle, and body weights are measured daily. The animals are sacrificed by decapitation 12 to 24 hours after receiving the last dose of the test compound. Control animals receive the vehicle alone.
(§2) Immediately after death, the organs (brain, heart, and kidney) are removed and homogenized either in 50 ml phosphate buffer pH 6.8 for AADC determination or in ice-cold 0.4 M HClO4 containing 0.05% (w/v) EDTA and 0.1% (w/v) sodium bisulfite for catecholamine determination. AADC activity is determined by the ^14 CO2 trapping method of J. Christenson, supra (see Example 14) using DL-[1-^14 C]-dopa as the substrate. Catecholamines are determined by centrifuging the homogenate, adding the supernatant to alumina buffered to pH 8.0-8.4 to adsorb the catecholamines, re-extracting the catecholamines from the alumina with 0.2 M HClO4 and determining the catecholamines in the extracts using known procedures, such as by reversed-phase ion-pair HPLC with electrochemical detection.
(§3) Table II, shown below, sets forth the results obtained by testing particular compounds of Formula I in the above-described procedure in mice (Swiss Albino) after i.p. administration of the compound twice daily for three days: […]

[2] = target: T1, AADC (Sus scrofa, UniProt P80041); assay: In vitro AADC inhibition: time of 90% inactivation (14CO2 trapping, DL-[1-14C]-dopa substrate); format: biochemical, hog; set-up: key to RATING: ++++: The relative activities of the compounds are rated by the given number of "plus" signs; +++: The relative activities of the compounds are rated by the given number of "plus" signs; 0-+: The relative activities of the compounds are rated by the given number of "plus" signs; settings: CONC. 100 μM; for TIME OF 90% INACTIVATION: pH 7.4, 37° C.; for RATING: relative activity
T1 sequence (P80041 1-486): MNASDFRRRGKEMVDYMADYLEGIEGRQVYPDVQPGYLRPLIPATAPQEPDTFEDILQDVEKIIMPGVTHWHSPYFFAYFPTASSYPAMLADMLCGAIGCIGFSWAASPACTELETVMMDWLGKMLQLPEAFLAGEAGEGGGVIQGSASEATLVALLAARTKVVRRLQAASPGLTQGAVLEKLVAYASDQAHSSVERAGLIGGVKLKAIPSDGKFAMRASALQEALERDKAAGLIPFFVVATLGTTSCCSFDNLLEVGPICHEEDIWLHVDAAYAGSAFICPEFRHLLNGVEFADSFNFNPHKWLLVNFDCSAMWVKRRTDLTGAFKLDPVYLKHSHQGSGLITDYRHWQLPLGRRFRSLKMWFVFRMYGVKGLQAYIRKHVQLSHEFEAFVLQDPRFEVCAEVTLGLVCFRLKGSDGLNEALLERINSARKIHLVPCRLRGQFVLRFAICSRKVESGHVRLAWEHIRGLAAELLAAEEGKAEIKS
Experimental: AADC can be purified from hog kidney by the general method of J. Christenson et al. Archs. Biochem. Biophys., 141, 356 (1970) and G. Lancaster et al., Can. J. Biochem., 50, 791 (1972), and the specific activity of the enzyme is determined by the ^14 CO2 trapping method using DL-[1-^14 C]-dopa as the substrate (see Christenson et al.). One unit of activity is defined as the total amount of enzyme which produces 1 n mol of CO2 per minute, with DL-[1-^14 C]-dopa as substrate.
To 100 μl of 50 mM-phosphate buffer pH 7.4 containing 100 mM-mercapto-ethanol are added 5 μl of an aqueous solution containing the test compound at the desired concentration and 50 μl of an aqueous solution containing 2 units of AADC. The mixture is incubated at 37° C. and 20 μl aliquots are removed at various times. The AADC activity remaining in each aliquot is measured by the CO2 trapping method of Christenson.
The relative activities of the compounds are rated by the given number of "plus" signs.

[3] = test system: catecholamine content (norepinephrine, dopamine); assay: Catecholamine content in organs of mice after repeated i.p. doses (Table II); format: in vivo, mice (Swiss Albino); settings: three days, 12 h after 6th dose, vs control
Experimental: as §1, §2, §3

[4] = Deaths in mice after repeated i.p. doses (Table II footnotes); format: in vivo, mice (Swiss Albino); settings: 100 mg/kg i.p. twice daily, three days; number dead of animals
Experimental: as §1, §3

[5] = test system: endogenous catecholamine and 5-HT levels; assay: Effect on endogenous catecholamine and 5-HT levels in brain and heart (general statement); format: in vivo
[6] = test system: AADC; assay: Ex vivo AADC activity in brain of rats after repeated i.p. doses (Table II, footnote c); settings: 100 mg/kg i.p. twice daily, three days, 12 h after 6th dose, vs control
Experimental: as §1, §2, §3

[7] = test system: catecholamine content (norepinephrine, dopamine); assay: Catecholamine content in organs of rats after repeated i.p. doses (Table II, footnote c); format: in vivo; settings: 100 mg/kg i.p. twice daily, three days, 12 h after 6th dose, vs control
Experimental: as §1, §2, §3

Compound	% CHANGE AADC Brain ([1]; 10 mg/kg i.p. twice daily)	% CHANGE AADC Kidney ([1]; 10 mg/kg i.p. twice daily)	% CHANGE AADC Brain ([1]; 100 mg/kg i.p. twice daily)	% CHANGE AADC Kidney ([1]; 100 mg/kg i.p. twice daily)	TIME OF 90% INACTIVATION [2]	RATING [2]	% CHANGE NOREPINEPHRINE Brain ([3]; 10 mg/kg i.p. twice daily, * not significant)	% CHANGE NOREPINEPHRINE Heart ([3]; 10 mg/kg i.p. twice daily, * not significant (-25*, -7*))	% CHANGE DOPAMINE Brain ([3]; 10 mg/kg i.p. twice daily, * not significant (-25*, -9*))	% CHANGE NOREPINEPHRINE Brain ([3]; 100 mg/kg i.p. twice daily)	% CHANGE NOREPINEPHRINE Heart ([3]; 100 mg/kg i.p. twice daily)	% CHANGE DOPAMINE Brain ([3]; 100 mg/kg i.p. twice daily, * not significant (-35*))	dead [4]	selectivity (brain catecholamines lowered, not heart, not brain 5-HT) [5]	% CHANGE AADC Brain [6]	% CHANGE DOPAMINE Brain [7]	% CHANGE NOREPINEPHRINE Brain [7]	% CHANGE NOREPINEPHRINE Heart [7]
Cc1ccc(CC(N)(CF)C(=O)O)c(O)c1 (centres unmarked) [2-OH4-methyl phenyl, 2-amino-2-fluoromethyl-3-(2-hydroxy-4-methylphenyl)propionic acid]	-39%	-70%	-99%	-99.5%	1 min	+++	0%	-7%	-9%	-69%	-75%	-35%	2/5	–	–	–	–	–
NC(CF)(Cc1ccc(O)cc1)C(=O)O (centres unmarked) [Example 4-OH-phenyl, 2-Amino-2-fluoromethyl-3-(4-hydroxyphenyl)propionic acid]	–	–	–	–	> 300 min	0-+	–	–	–	–	–	–	–	not found	-88%	-88%	-54%	-45%
